# In publication PMC5515969, “Effects of 31 FDA approved small-molecule kinase inhibitors on isolated rat liver mitochondria” (Archives of Toxicology, 2016):
# Where a name gives a salt, the structure may show the parent alone. Read-outs that look alike come from different tables or passages of the source.
# Columns and labels:
# RCC II = target: T1, RCC II (Rattus norvegicus, UniProt P21913+Q641Z9+Q6PCT8+Q920L2); test: RCC II activity in submitochondrial particles; assay type: biochemical; design: key: activity relative to DMSO-treated controls (control set as 1 = 100%); details: relative to DMSO treated samples
# T1 construct: Submitochondrial particles were prepared by subjecting the intact mitochondria to three successive freeze–thaw cycles; from tissue; host or cells: rat liver mitochondria, used as submitochondrial particles
# Procedure: (§1) KIs were incubated with submitochondrial particles (1 mg/ml) for 15 min and then RCC I–V activities measured. […] The activities of DMSO-treated samples (controls) were set as 1. […] The difference between the activity from rotenone-containing buffer and rotenone-absent buffer was considered as RCC I activity. […] For measuring RCC I/V and II activity, the changes in absorbance at 340 and 600 nm, respectively, were determined every 1 min for 6 min. For measuring RCC III and RCC IV, the changes in absorbance at 550 nm were measured every 10 s for 2 min.
# [1] = system: isolated rat liver mitochondria; test: Mitochondrial ROS production (CM-H2DCFDA); details: DMSO treated samples set as 1
# [2] = design: method as in product labeling; details: ref product labeling, cited from earlier work; for Labeling for cardiotoxicity: BBW: black box warning, W&P: Warnings and Precautions
# [3] = system: isolated rat liver mitochondria; test: Mitochondrial oxygen consumption (glutamate/malate or succinate driven, state 4 and state 3); assay type: biochemical; details: DMSO treated samples set as 1; for State 3 respiration driven by succinate at 10XCmax: key: 0 indicates that the drug had no effects (negative); for State 3 respiration driven by succinate at 1XCmax: key: 0 indicates that the drug had no effects (negative)
# Procedure: Rats were anesthetized by an intraperitoneal injection of Nembutal and the liver perfused with PBS to remove the blood. The liver was then cut into small pieces and homogenized using a Dounce type homogenizer in the ice-cold isolation buffer (IB) containing 200 mM sucrose, 10 mM Tris-MOPS, 1 mM EGTA (pH 7.4). The sample was then centrifuged at 600g for 10 min. The supernatant was further centrifuged at 7500g for 10 min, and the pellets was washed once with the IB and centrifuged again at 7500g for 10 min to collect mitochondria. […] Before drug treatment, the protein concentration was adjusted to 1 mg/ml using appropriate buffer. […] Briefly, mitochondrial and cytosolic fractions from four different preparations using four rats were diluted using the Laemmli protein loading buffer and subject to SDS-PAGE with 4–20% gradient gels. The proteins were blotted to PVDF membranes and detected using antibodies against GAPDH, ATP5A, UQCRC2, SDHB, and NDUFB8.
# The aliquoted stock solutions were kept for less than one month and each tube was used only once. The KIs were added to the mitochondria at 1:1000 dilutions. […] The Cmax data were from clinical trials which used FDA recommend dosages, route of administration, and duration. […] The final concentration of DMSO for drug treatment was always 0.1%, and control treatments were 0.1% DMSO.
# Briefly, mitochondria were incubated with the KIs for 5 min, and then split evenly and loaded to the sample tubes of two Oxytherm systems (Hansatech Instruments Ltd), with one system used for measuring glutamate/malate driven respiration and the other succinate-driven respiration, both of which were defined as state 4 respiration. After 3 min, ADP was added to measure the maximal oxygen consumption rate, which was defined as state 3 respiration. […] The oxygen consumption rate of DMSO-treated samples (controls) was set as 1.
# RCC I = RCC I activity in submitochondrial particles; assay type: biochemical, rat; design: key to RCC I at 10XCmax / RCC I at 100XCmax / RCC I at 50XCmax / RCC I at 30XCmax / RCC I at 20XCmax: activity relative to DMSO-treated controls (control set as 1 = 100%); details: 10XCmax; relative to DMSO treated samples
# Procedure: as §1
# [4] = system: isolated rat liver mitochondria; test: Mitochondrial swelling (absorbance at 535 nm); assay type: biochemical; details: difference in signal between KI and DMSO treated samples at the end of experiments; for Swelling 5XCmax: key: 0 indicates that the drug had no effects (negative)
# [5] = system: isolated rat liver mitochondria; test: Mitochondrial inner membrane potential (MMP), Rhodamine 123; assay type: biochemical; details: difference in signal between KI and DMSO treated samples at the end of experiments
# Excerpt: Fig. 3 KI effects on mitochondrial inner membrane potential (MMP). […] In a, c, data are means and standard derivations from three separate experiments. *p < 0.05 as compared to DMSO-treated samples at the end of experiments. In b, data are means of two independent experiments
# [6] = system: isolated rat liver mitochondria; details: positive control alamethicin treated samples
# RCC V = RCC V activity in submitochondrial particles; assay type: biochemical, rat; details: relative to DMSO treated samples; for RCC V at 5XCmax: key: 0 indicates that the drug had no effects (negative)
# Procedure: as §1
# [7] = cited from earlier work
# [8] = cited from earlier work; remark: listed apart in the source
# RCC IV = RCC IV activity in submitochondrial particles; assay type: biochemical, rat; design: key to RCC IV at 50XCmax / RCC IV at 100XCmax: activity relative to DMSO-treated controls (control set as 1 = 100%); details: 50XCmax; relative to DMSO treated samples; in %
# Procedure: as §1
# RCC III = RCC III activity in submitochondrial particles; assay type: biochemical, rat; design: key to RCC III at 100XCmax: activity relative to DMSO-treated controls (control set as 1 = 100%); details: 100XCmax; relative to DMSO treated samples
# Procedure: as §1
# [9] = read-out: Cmax at µM, therapeutic maximal blood concentration, ref product labeling
# [10] = therapeutic maximal blood concentration, ref product labeling
# T1 sequence (Q920L2 35-656): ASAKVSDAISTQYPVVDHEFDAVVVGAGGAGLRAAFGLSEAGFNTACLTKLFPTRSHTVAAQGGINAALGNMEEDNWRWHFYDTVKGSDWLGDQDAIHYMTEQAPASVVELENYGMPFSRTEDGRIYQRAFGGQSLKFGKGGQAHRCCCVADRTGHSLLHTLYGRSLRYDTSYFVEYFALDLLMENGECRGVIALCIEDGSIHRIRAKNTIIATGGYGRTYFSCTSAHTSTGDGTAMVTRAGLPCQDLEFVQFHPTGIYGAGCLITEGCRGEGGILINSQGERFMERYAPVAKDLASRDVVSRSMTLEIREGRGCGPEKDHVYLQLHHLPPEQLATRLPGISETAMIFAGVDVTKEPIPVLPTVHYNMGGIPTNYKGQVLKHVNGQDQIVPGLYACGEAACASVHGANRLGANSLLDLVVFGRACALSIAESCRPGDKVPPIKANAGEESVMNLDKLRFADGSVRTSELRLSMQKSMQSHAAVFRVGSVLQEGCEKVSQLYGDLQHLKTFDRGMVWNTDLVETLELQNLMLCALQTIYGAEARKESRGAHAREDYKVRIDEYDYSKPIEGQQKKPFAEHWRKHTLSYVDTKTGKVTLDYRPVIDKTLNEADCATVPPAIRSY
# T1 sequence (P21913 31-282): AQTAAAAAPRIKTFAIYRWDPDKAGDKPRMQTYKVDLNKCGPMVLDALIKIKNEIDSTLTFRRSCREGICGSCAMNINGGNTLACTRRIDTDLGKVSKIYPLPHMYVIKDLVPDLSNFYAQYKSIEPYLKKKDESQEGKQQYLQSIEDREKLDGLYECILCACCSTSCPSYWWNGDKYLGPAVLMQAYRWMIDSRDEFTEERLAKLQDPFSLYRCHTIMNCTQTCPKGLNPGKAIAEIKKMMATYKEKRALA
# T1 sequence (Q641Z9 1-169): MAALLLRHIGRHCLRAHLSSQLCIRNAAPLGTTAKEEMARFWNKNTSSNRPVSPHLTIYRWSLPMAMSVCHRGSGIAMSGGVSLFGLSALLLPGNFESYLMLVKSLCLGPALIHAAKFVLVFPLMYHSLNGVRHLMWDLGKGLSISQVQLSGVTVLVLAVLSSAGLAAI
# T1 sequence (Q6PCT8 57-159): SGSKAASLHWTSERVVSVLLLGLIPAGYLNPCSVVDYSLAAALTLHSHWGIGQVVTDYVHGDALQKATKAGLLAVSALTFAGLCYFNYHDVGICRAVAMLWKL
smiles,measurement,setting,value
Cc1cn(-c2cc(NC(=O)c3ccc(C)c(Nc4nccc(-c5cccnc5)n4)c3)cc(C(F)(F)F)c2)cn1 [Nilotinib],RCC II at 1.0XCmax,RCC II,0
same,RCC II at 2.5XCmax,RCC II,0
same,RCC II at 5XCmax,RCC II,0
same,RCC II at 10XCmax,RCC II,0
same,ROS measured by CM-H2DCFDA at 1XCmax,[1],0
same,ROS measured by CM-H2DCFDA at 2.5XCmax,[1],0
same,ROS measured by CM-H2DCFDA at 5XCmax,[1],0
same,ROS measured by CM-H2DCFDA at 10XCmax,[1],0
same,Labeling for cardiotoxicity,[2],BBW: QT Interval Prolongation
same,Potential for cardiotoxicity (based on labeling),[2],1
same,State 3 respiration driven by succinate at 1XCmax,[3],0
same,State 4 respiration driven by succinate at 1XCmax,[3],0
same,State 3 respiration driven by succinate at 2.5XCmax,[3],0
same,State 4 respiration driven by succinate at 2.5XCmax,[3],0
same,State 3 respiration driven by succinate at 5XCmax,[3],0
same,State 4 respiration driven by succinate at 5XCmax,[3],0
same,State 3 respiration driven by succinate at 10XCmax,[3],0
same,State 4 respiration driven by succinate at 10XCmax,[3],0
same,RCC I at 10XCmax,RCC I,0
same,Swelling 1XCmax,[4],0
same,Swelling 2.5XCmax,[4],0
same,Swelling 5XCmax,[4],0
same,Swelling 10XCmax,[4],0
same,MMP measured by Rhodamine 123 at 1XCmax,[5],0
same,MMP measured by Rhodamine 123 at 2.5XCmax,[5],0
same,MMP measured by Rhodamine 123 at 5XCmax,[5],0
same,MMP measured by Rhodamine 123 at 10XCmax,[5],0
same,Cytochrome c release 1XCmax,[6],0
same,Cytochrome c release 2.5XCmax,[6],0
same,Cytochrome c release 5XCmax,[6],0
same,Cytochrome c release 10XCmax,[6],0
same,RCC V at 5XCmax,RCC V,0
same,Cmax,"[7]; human therapeutic Cmax at FDA recommended dosages, ref product labeling and drug approval packages at the official FDA website",4.27 µM
same,Cmax,[7]; [9],4.27 µM
same,Cmax,[7]; [10],2260 ng/mL
CS(=O)(=O)CCNCc1ccc(-c2ccc3ncnc(Nc4ccc(OCc5cccc(F)c5)c(Cl)c4)c3c2)o1 [lapatinib ditosylate monohydrate],RCC II at 1.0XCmax,RCC II,0
same,RCC II at 2.5XCmax,RCC II,0
same,RCC II at 5XCmax,RCC II,0
same,RCC II at 10XCmax,RCC II,0
same,ROS measured by CM-H2DCFDA at 1XCmax,[1],0
same,ROS measured by CM-H2DCFDA at 2.5XCmax,[1],0
same,ROS measured by CM-H2DCFDA at 5XCmax,[1],0
same,ROS measured by CM-H2DCFDA at 10XCmax,[1],0
same,Labeling for cardiotoxicity,[2],W&P: Decreased Left Ventricular Ejection Fraction; QT Prolongation
same,Potential for cardiotoxicity (based on labeling),[2],1
same,State 3 respiration driven by succinate at 1XCmax,[3],0
same,State 4 respiration driven by succinate at 1XCmax,[3],0
same,State 3 respiration driven by succinate at 2.5XCmax,[3],0
same,State 4 respiration driven by succinate at 2.5XCmax,[3],0
same,State 3 respiration driven by succinate at 5XCmax,[3],0
same,State 4 respiration driven by succinate at 5XCmax,[3],0
same,State 3 respiration driven by succinate at 10XCmax,[3],0
same,State 4 respiration driven by succinate at 10XCmax,[3],0
same,RCC I at 10XCmax,RCC I,0
same,Swelling 1XCmax,[4],0
same,Swelling 2.5XCmax,[4],0
same,Swelling 5XCmax,[4],0
same,Swelling 10XCmax,[4],0
same,MMP measured by Rhodamine 123 at 1XCmax,[5],0
same,MMP measured by Rhodamine 123 at 2.5XCmax,[5],0
same,MMP measured by Rhodamine 123 at 5XCmax,[5],0
same,MMP measured by Rhodamine 123 at 10XCmax,[5],0
same,DILI potential (based on labeling),"[8]; 1 = DILI positive, 0 = negative, ref product labeling",1
same,Labeling for DILI,[8]; in vivo,BBW: fatal DILI
same,Cytochrome c release 1XCmax,[6],0
same,Cytochrome c release 2.5XCmax,[6],0
same,Cytochrome c release 5XCmax,[6],0
same,Cytochrome c release 10XCmax,[6],7.91±2.25 percentage of the positive control group
same,RCC V at 5XCmax,RCC V,0
same,Cmax,[7]; [10],2430 ng/mL
C[C@@H]1CCN(C(=O)CC#N)C[C@@H]1N(C)c1ncnc2[nH]ccc12 [tofacitinib citrate],RCC II at 1.0XCmax,RCC II,0
same,RCC II at 2.5XCmax,RCC II,0
same,RCC II at 5XCmax,RCC II,0
same,RCC II at 10XCmax,RCC II,0
same,RCC II at 20XCmax,RCC II; 20XCmax,0
same,RCC II at 30XCmax,RCC II; 30XCmax,0
same,RCC II at 50XCmax,RCC II; 50XCmax,0
same,RCC II at 100XCmax,RCC II; 100XCmax,0
same,ROS measured by CM-H2DCFDA at 1XCmax,[1],0
same,ROS measured by CM-H2DCFDA at 2.5XCmax,[1],0
same,ROS measured by CM-H2DCFDA at 5XCmax,[1],0
same,ROS measured by CM-H2DCFDA at 10XCmax,[1],0
same,ROS measured by CM-H2DCFDA at 20XCmax,[1]; 20XCmax,0
same,ROS measured by CM-H2DCFDA at 30XCmax,[1]; 30XCmax,0
same,ROS measured by CM-H2DCFDA at 50XCmax,[1]; 50XCmax,0
same,ROS measured by CM-H2DCFDA at 100XCmax,[1]; 100XCmax,0
same,State 3 respiration driven by succinate at 1XCmax,[3],0
same,State 4 respiration driven by succinate at 1XCmax,[3],0
same,State 3 respiration driven by succinate at 2.5XCmax,[3],0
same,State 4 respiration driven by succinate at 2.5XCmax,[3],0
same,State 3 respiration driven by succinate at 5XCmax,[3],0
same,State 4 respiration driven by succinate at 5XCmax,[3],0
same,State 3 respiration driven by succinate at 10XCmax,[3],0
same,State 4 respiration driven by succinate at 10XCmax,[3],0
same,State 3 respiration driven by succinate at 20XCmax,[3]; 20XCmax,0
same,State 4 respiration driven by succinate at 20XCmax,[3]; 20XCmax,0
same,State 3 respiration driven by succinate at 30XCmax,[3]; 30XCmax,0
same,State 4 respiration driven by succinate at 30XCmax,[3]; 30XCmax,0
same,State 3 respiration driven by succinate at 50XCmax,[3]; 50XCmax,0
same,State 4 respiration driven by succinate at 50XCmax,[3]; 50XCmax,0
same,State 3 respiration driven by succinate at 100XCmax,[3]; 100XCmax,0
same,State 4 respiration driven by succinate at 100XCmax,[3]; 100XCmax,0
same,RCC I at 10XCmax,RCC I,0
same,Swelling 1XCmax,[4],0
same,Swelling 2.5XCmax,[4],0
same,Swelling 5XCmax,[4],0
same,Swelling 10XCmax,[4],0
same,Swelling 20XCmax,[4]; 20XCmax,0
same,Swelling 30XCmax,[4]; 30XCmax,0
same,Swelling 50XCmax,[4]; 50XCmax,0
same,Swelling 100XCmax,[4]; 100XCmax,0
same,MMP measured by Rhodamine 123 at 1XCmax,[5],0
same,MMP measured by Rhodamine 123 at 2.5XCmax,[5],0
same,MMP measured by Rhodamine 123 at 5XCmax,[5],0
same,MMP measured by Rhodamine 123 at 10XCmax,[5],0
same,MMP measured by Rhodamine 123 at 20XCmax,[5]; 20XCmax,0
same,MMP measured by Rhodamine 123 at 30XCmax,[5]; 30XCmax,0
same,MMP measured by Rhodamine 123 at 50XCmax,[5]; 50XCmax,0
same,MMP measured by Rhodamine 123 at 100XCmax,[5]; 100XCmax,0
same,Cytochrome c release 1XCmax,[6],0
same,Cytochrome c release 2.5XCmax,[6],0
same,Cytochrome c release 5XCmax,[6],0
same,Cytochrome c release 10XCmax,[6],0
same,Cytochrome c release 20XCmax,[6]; 20XCmax,0
same,Cytochrome c release 30XCmax,[6]; 30XCmax,0
same,Cytochrome c release 50XCmax,[6]; 50XCmax,0
same,Cytochrome c release 100XCmax,[6]; 100XCmax,7.22±1.11 percentage of the positive control group
same,RCC V at 5XCmax,RCC V,0
same,RCC V at 50XCmax,RCC V; 50XCmax,0
same,RCC IV at 50XCmax,RCC IV,0
same,RCC III at 100XCmax,RCC III,0
same,Cmax,[7]; [9],0.089 µM
same,Cmax,[7]; [10],45.1 ng/mL
